Target: Delta-type opioid receptor (Homo sapiens, UniProt P41143)
Assay: DOR agonists, SAR follow-up, image-based (AID 2370)

Delta-type opioid receptor, sequence (P41143 whole entry): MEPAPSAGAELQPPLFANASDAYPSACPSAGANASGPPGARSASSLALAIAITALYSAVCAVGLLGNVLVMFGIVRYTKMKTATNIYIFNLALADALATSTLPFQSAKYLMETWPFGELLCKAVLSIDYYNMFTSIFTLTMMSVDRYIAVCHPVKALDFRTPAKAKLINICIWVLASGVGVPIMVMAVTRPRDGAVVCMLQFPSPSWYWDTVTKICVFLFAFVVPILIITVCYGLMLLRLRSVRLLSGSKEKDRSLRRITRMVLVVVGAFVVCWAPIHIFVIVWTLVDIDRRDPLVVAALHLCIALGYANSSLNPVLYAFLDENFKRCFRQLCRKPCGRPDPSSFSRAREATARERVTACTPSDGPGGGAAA

| Structure (SMILES) | EC50 |
| --- | --- |
| Oc1ccc(CN=Nc2ccnc3cc(Cl)ccc23)cc1O [(4Z)-4-[[2-(7-chloroquinolin-4-yl)hydrazinyl]methylidene]-2-hydroxycyclohexa-2,5-dien-1-one] | > 32 µM |
| CCC(N=Nc1ccnc2cc(Cl)ccc12)c1ccc(O)cc1 (configuration not stated) [4-[1-[2-(7-chloroquinolin-4-yl)hydrazinyl]propylidene]cyclohexa-2,5-dien-1-one] | 30.7 µM |

Source: BindingDB's records for doi:10.7270/Q2125R3Z (Burnham Center For Chemical Genomics, 2010)
